US12129237B2, “Substituted diaminocarboxamide and diaminocarbonitrile pyrimidines, compositions thereof, and methods of treatment therewith” (SIGNAL PHARMACEUTICALS, LLC, priority 2011, dated 2024)

Target: T1, JNK1 (Homo sapiens, UniProt P45983)
T1 construct: purchased Carna Biosciences
Test: JNK1 biochemical assays (one or more of: time resolved fluorescence, Z'-LYTE Cascade, radioactive)
Conditions: Table 2; JNK1 IC50 activity level; read-out: Act. Level

T1 sequence (P45983 whole entry): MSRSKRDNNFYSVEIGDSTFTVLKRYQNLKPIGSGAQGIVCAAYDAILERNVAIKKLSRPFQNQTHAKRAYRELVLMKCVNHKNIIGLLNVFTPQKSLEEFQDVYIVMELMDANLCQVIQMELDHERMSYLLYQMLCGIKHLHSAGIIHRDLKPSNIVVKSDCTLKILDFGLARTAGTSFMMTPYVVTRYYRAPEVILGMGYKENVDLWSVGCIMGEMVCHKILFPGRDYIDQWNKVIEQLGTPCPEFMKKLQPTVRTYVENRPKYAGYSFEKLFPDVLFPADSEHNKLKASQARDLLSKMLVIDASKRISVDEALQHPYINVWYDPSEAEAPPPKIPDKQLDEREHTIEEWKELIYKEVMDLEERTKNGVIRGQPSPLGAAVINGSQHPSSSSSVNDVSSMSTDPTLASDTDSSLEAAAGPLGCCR

Row | IC50 [nM] | Structure (SMILES)
1 | 1000 to 10000 | N#Cc1cnc(NC2CCCCC2)nc1Nc1ccccc1 [Example B-86, 2-(cyclohexylamino)-4-(phenylamino)pyrimidine-5-carbonitrile]
2 | 800 to 1000 | NC(=O)c1cnc(NCc2cc(F)cc(F)c2)nc1Nc1ccccc1 [Example B-52, 2-(3,5-difluorobenzylamino)-4-(phenylamino)pyrimidine-5-carboxamide]
3 | < 200 | Cc1cccc(Nc2ncc(C(N)=O)c(Nc3ccccc3)n2)c1 [Example B-28, 4-(phenylamino)-2-(m-tolylamino)pyrimidine-5-carboxamide]
4 | 200 to 800 | NC(=O)c1cnc(NC2CCN(Cc3ccccc3)CC2)nc1Nc1ccccc1 [Example B-50, 2-(1-benzylpiperidin-4-ylamino)-4-(phenylamino)pyrimidine-5-carboxamide]

Same assay, conditions: Table 3; JNK1 IC50 activity level; read-out: Act. Level

Row | IC50 [nM] | Structure (SMILES)
5 | < 200 | CN(C)C(=O)C(C)(C)C1CCC(Nc2ncc(C#N)c(N[C@@H]3CCC[C@H](O)C3)n2)CC1 (stereo partly drawn) [Example C-34, 2-(4-(5-cyano-4-((1R,3S)-3-hydroxycyclohexylamino)pyrimidin-2-ylamino)cyclohexyl)-N,N,2-trimethylpropanamide]

Same assay, conditions: one or more of the JNK1 biochemical assays; read-out: Act. Level (JNK1 IC50 activity level)

Row | IC50 [nM] | Structure (SMILES)
6 | < 200 | NC(=O)c1cnc(NC2CCC(F)(F)CC2)nc1N[C@@H]1CCC[C@@H]1CO [Example 241, 2-(4,4-difluorocyclohexylamino)-4-((1R,2S)-2-(hydroxymethyl)cyclopentylamino)pyrimidine-5-carboxamide]
7 | < 200 | CC(C)(C)Nc1ncc(C(N)=O)c(N[C@@H]2CCC[C@](C)(O)C2)n1 [Example 213, 2-(tert-butylamino)-4-((1R,3S)-3-hydroxy-3-methylcyclohexylamino)pyrimidine-5-carboxamide]
8 | < 200 | CC(C)(C)Nc1ncc(C(N)=O)c(N[C@@H]2CCC[C@@H]2CO)n1 [Example 365, 2-(tert-butylamino)-4-((1R,2S)-2-(hydroxymethyl)cyclopentylamino)pyrimidine-5-carboxamide]
9 | < 200 | CCC(C)(C)Nc1nc(NC23CCC(O)(CC2)C3)ncc1C(N)=O [Example 452, 2-(4-hydroxybicyclo[2.2.1]heptan-1-ylamino)-4-(tert-pentylamino)pyrimidine-5-carboxamide]
10 | < 200 | NC(=O)c1cnc(N[C@H]2CC[C@H](OC(F)F)CC2)nc1N[C@@H]1CCC[C@@H]1CO [Example 268, 2-((1r,4R)-4-(difluoromethoxy)cyclohexylamino)-4-((1R,2S)-2-(hydroxymethyl)cyclopentylamino)pyrimidine-5-carboxamide]
11 | < 200 | CC(C)(C)Nc1nc(NC2CCCC(O)CC2)ncc1C(N)=O (stereo not shown) [Example 250, 4-(tert-butylamino)-2-(4-hydroxycycloheptylamino)pyrimidine-5-carboxamide]
12 | < 200 | CC(C)[C@@H](C)Nc1nc(N[C@H]2CC[C@H](O)CC2)ncc1C(N)=O [Example 292, 2-((1r,4R)-4-hydroxycyclohexylamino)-4-((R)-3-methylbutan-2-ylamino)pyrimidine-5-carboxamide]
13 | < 200 | C[C@@H]1CC[C@@H](Nc2nc(N[C@H](C)C(C)(C)C)ncc2C(N)=O)C[C@H]1O [Example 461, 2-((R)-3,3-dimethylbutan-2-ylamino)-4-((1R,3R,4R)-3-hydroxy-4-methylcyclohexylamino)pyrimidine-5-carboxamide]
14 | < 200 | C[C@H](Nc1nc(N[C@H]2CC[C@H](O)CC2)ncc1C(N)=O)C1CC1 [Example 263, 4-((S)-1-cyclopropylethylamino)-2-((1r,4S)-4-hydroxycyclohexylamino)pyrimidine-5-carboxamide]
15 | < 200 | CC1(Nc2ncc(C(N)=O)c(N[C@@H]3CCC[C@H](O)C3)n2)CCC1 [Example 354, 4-((1R,3S)-3-hydroxycyclohexylamino)-2-(1-methylcyclobutylamino)pyrimidine-5-carboxamide]
16 | < 200 | NC(=O)c1cnc(N[C@H]2CC[C@H](O)CC2)nc1NC1COC1 [Example 235, 2-((1r,4r)-4-hydroxycyclohexylamino)-4-(oxetan-3-ylamino)pyrimidine-5-carboxamide]
17 | < 200 | CC(=O)N[C@H]1CC[C@H](Nc2ncc(C(N)=O)c(NC(C)C)n2)CC1 [Example 203, 2-((1r,4r)-4-acetamidocyclohexylamino)-4-(isopropylamino)pyrimidine-5-carboxamide]
18 | < 200 | CC(C)(Nc1nc(N[C@@H]2CCC[C@@H](O)C2)ncc1C(N)=O)C1CC1 [Example 465, 4-(2-cyclopropylpropan-2-ylamino)-2-((1R,3R)-3-hydroxycyclohexylamino)pyrimidine-5-carboxamide]
19 | < 200 | CO[C@H]1CC[C@H](Nc2ncc(C(N)=O)c(NC(C)(C)C(C)C)n2)CC1 [Example 274, 4-(2,3-dimethylbutan-2-ylamino)-2-((1r,4r)-4-methoxycyclohexylamino)pyrimidine-5-carboxamide]
20 | < 200 | C[C@@H]1CC[C@@H](Nc2nc(N[C@H](C)C3CC3)ncc2C(N)=O)C[C@H]1O [Example 394, 2-((R)-1-cyclopropylethylamino)-4-((1R,3R,4R)-3-hydroxy-4-methylcyclohexylamino)pyrimidine-5-carboxamide]
21 | < 200 | NC(=O)c1cnc(N[C@H]2CC[C@H](OC3CC3)CC2)nc1NC1C2CC1C2 (stereo partly shown) [Example 486, 4-(bicyclo[1.1.1]pentan-2-ylamino)-2-((1r,4r)-4-cyclopropoxycyclohexylamino)pyrimidine-5-carboxamide]
22 | 200 to 800 | CNc1nc(N[C@H]2CC[C@H](O)CC2)ncc1C(N)=O [Example 270, 2-((1r,4r)-4-hydroxycyclohexylamino)-4-(methylamino)pyrimidine-5-carboxamide]
23 | < 200 | CC[C@@H](Nc1nc(N[C@H]2CC[C@H](O)CC2)ncc1C(N)=O)C1CC1 [Example 385, 4-((R)-1-cyclopropylpropylamino)-2-((1r,4R)-4-hydroxycyclohexylamino)pyrimidine-5-carboxamide]

Same assay, conditions: tested in one or more of the JNK1 biochemical assays; read-out: Act. Level (JNK1 biochemical assay IC50 activity level)

Row | IC50 [nM] | Structure (SMILES)
24 | < 200 | NC(=O)c1cnc(N[C@H]2CC[C@H](OCC(F)(F)F)CC2)nc1N[C@@H]1CCC[C@H]1O [Example A-156, 4-((1R,2R)-2-hydroxycyclopentylamino)-2-((1r,4R)-4-(2,2,2-trifluoroethoxy)cyclohexylamino)pyrimidine-5-carboxamid]
25 | 200 to 800 | COC[C@H]1CC[C@@H](Nc2nc(N[C@@H]3CCN(C(C)=O)C3)ncc2C(N)=O)CC1 [Example A-84, 2-((R)-1-acetylpyrrolidin-3-ylamino)-4-((1s,4S)-4-(methoxymethyl)cyclohexylamino)pyrimidine-5-carboxamide]
26 | < 200 | CNC(=O)[C@H]1CC[C@H](Nc2ncc(C(N)=O)c(N[C@@H]3CCC[C@H](O)C3)n2)CC1 [Example A-56, 4-((1R,3S)-3-hydroxycyclohexylamino)-2-((1r,4R)-4-(methylcarbamoyl)cyclohexylamino)pyrimidine-5-carboxamide]
27 | < 200 | NC(=O)c1cnc(NC2CCOCC2)nc1N[C@@H]1CCCC[C@H](O)C1 [Example A-166, 4-((1R,3S)-3-hydroxycycloheptylamino)-2-(tetrahydro-2H-pyran-4-ylamino)pyrimidine-5-carboxamide]
28 | 800 to 1000 | CCO[C@H]1CC[C@@H](Nc2ncc(C(N)=O)c(N[C@H]3CCC[C@@H]3O)n2)CC1 [Example A-62, 2-((1s,4R)-4-ethoxycyclohexylamino)-4-((1S,2S)-2-hydroxycyclopentylamino)pyrimidine-5-carboxamide]
29 | < 200 | CCO[C@H]1CC[C@H](Nc2ncc(C(N)=O)c(N[C@@H]3CCCC[C@H](O)C3)n2)CC1 [Example A-158, 2-((1r,4R)-4-ethoxycyclohexylamino)-4-((1R,3S)-3-hydroxycycloheptylamino)pyrimidine-5-carboxamide]
30 | < 200 | CC(C)Nc1nc(NC2CCC(F)(F)CC2)ncc1C(N)=O [Example A-3, 2-(4,4-difluorocyclohexylamino)-4-(isopropylamino)pyrimidine-5-carboxamide]
31 | < 200 | CC(=O)N1CCC(Nc2nc(N[C@@H](C)C3CCCCC3)ncc2C(N)=O)CC1 [Example A-127, (S)-4-(1-acetylpiperidin-4-ylamino)-2-(1-cyclohexylethylamino)pyrimidine-5-carboxamide]
32 | < 200 | C[C@]1(O)CCC[C@@H](Nc2nc(N[C@H]3CC[C@H](OC(F)F)CC3)ncc2C(N)=O)C1 [Example A-170, 2-((1r,4R)-4-(difluoromethoxy)cyclohexylamino)-4-((1R,3S)-3-hydroxy-3-methylcyclohexylamino)pyrimidine-5-carboxamide]
33 | 200 to 800 | CC(C)Nc1nc(NC2CCC3(CC2)OCCO3)ncc1C(N)=O [Example A-11, 2-(1,4-dioxaspiro[4.5]decan-8-ylamino)-4-(isopropylamino)pyrimidine-5-carboxamide]
34 | < 200 | NC(=O)c1cnc(NC2CCC(F)(F)CC2)nc1N[C@@H]1CCCC[C@H](O)C1 [Example A-192, 2-(4,4-difluorocyclohexylamino)-4-((1R,3S)-3-hydroxycycloheptylamino)pyrimidine-5-carboxamide]
35 | < 200 | NC(=O)c1cnc(N[C@H]2CC[C@H](OC(F)F)CC2)nc1N[C@@H]1CCC[C@H]1O [Example A-4, 2-((1r,4R)-4-(difluoromethoxy)cyclohexylamino)-4-((1R,2R)-2-hydroxycyclopentylamino)pyrimidine-5-carboxamide]
36 | < 200 | CN(C)C(=O)[C@H]1CC[C@H](Nc2ncc(C(N)=O)c(N[C@@H]3CCCOC3)n2)CC1 [Example A-194, 2-((1r,4R)-4-(dimethylcarbamoyl)cyclohexylamino)-4-((R)-tetrahydro-2H-pyran-3-ylamino)pyrimidine-5-carboxamide]
37 | 200 to 800 | NC(=O)c1cnc(N[C@H]2CC[C@](O)(c3ccccc3)CC2)nc1N[C@H]1CCC[C@@H]1O [Example A-70, 2-((1s,4R)-4-hydroxy-4-phenylcyclohexylamino)-4-((1S,2S)-2-hydroxycyclopentylamino)pyrimidine-5-carboxamide]
